Test system: model rat of the present invention (13LK freely fed)
Assay: Alkalizing agent (citrate or sodium bicarbonate) given to the 13LK-fed model rat: urine pH and urinary corticosterone excretion (Example 3)
Format: in vivo
Settings: 13LK model rat, 1 week, n = 8; for Urine pH: 13LK control 5.7 ± 0.2; for Urine corticosterone: 13LK control 486 ± 115
Method: Citrate or sodium bicarbonate was administered as an alkalizing agent using the model rat of the present invention prepared in Example 1 (13LK was freely fed as a feed for one week), and the results of confirming urine pH and urinary glucocorticoid (corticosterone) excretion are shown in Table 3. Urine pH increased and corticosterone excretion decreased in both the citrate administration group and the sodium bicarbonate administration group as compared to the control group.

O=C([O-])O.[Na+] [NaHCO3, sodium bicarbonate]
Urine pH: 6.8 ± 0.6 | Urine pH (listed as sodium bicarbonate): increased | Urine corticosterone: 309 ± 116 ng/day | Urine corticosterone (listed as sodium bicarbonate): decreased

Source: patent US20210196747A1, “METABOLISM IMPROVING AGENT” (University of the Ryukyus, priority 2018, published 2021)
